Where “and” joins values, the source holds several entries; their conditions need not be identical. Identical values can stand only once.
System: 454973-116-R2-J3-PDC spheroids, viability, % test/control
Test: Anticancer human tumor 454973-116-R2-J3-PDC patient-derived pancreatic carcinoma cell line growth inhibition [GQUAD]
Details: spheroids with HUVEC and MSC; for viability, T/C: stronger effect = lower value
Source text: DNA G-quadruplex Stabilizer Agents in Combinations in Complex Spheroids
A high-throughput screen of multi-cell type tumor spheroids was designed to identify active combinations of DNA G-quadruplex stabilizer agents and targeted small molecules. Complex spheroids include a stromal component modeled by human endothelial cells (HUVEC) and fibroblasts modeled by human mesenchymal stem cells (MSCs). The concentration ranges selected for each drug and investigational agent were based upon clinically achievable concentrations if the clinical Cmax of the agent was known.
Compounds. The drugs and investigational agents: pidnarulex (CX-5461; NSC782164), APTO-253 (NSC789042), BRACO-19 (NSC847499), peposertib (NSC802822), ceralasertib (NSC780249), elimusertib (NSC800525), camonsertib (NSC841442), AZD-1390 (NSC803789), olaparib (NSC753686), talazoparib (NSC767125), ART-558 (NSC835418), sotorasib (NSC818433), MRTX-1133 (NSC836407), SN-38 (NSC673596), topotecan (NSC609699), etoposide (NSC141540), doxorubicin (NSC123127), gemcitabine (NSC613327), 5-fluorouracil (NSC19893), paclitaxel (NSC125973), vemurafenib (NSC761431), panobinostat (NSC761190), R-306465 (JNJ-16241199; NSC773264), adavosertib (NSC754352), TP-3654 (NSC805149), carboplatin (NSC241240), KSQ-4279 (NSC840948), and staurosporine (NSC755774) were obtained from the National Cancer Institute (NCI) Developmental Therapeutics Program Chemical Repository (34). The FDA-approved anticancer drug set is available from the NCI Developmental Therapeutics Program. […] The stock solutions were prepared in dimethyl sulfoxide (DMSO, Sigma-Aldrich, St. Louis, MO, cat. D2650) at 800-fold the tested concentration and stored at -70 degrees C prior to their use. All drugs and investigational agents were tested over a range starting from a high concentration at or near the clinical Cmax and decreasing in half-log increments. If the clinical Cmax for an agent had not been determined, the highest concentration tested was 10 microM.
2.3 Cell Culture. All cells were maintained in an incubator at 37 degrees C and 5% CO2 with 95% humidity. The PDC lines were cultured according to standard operating procedures established by the NCI PDMR. All PDCs were thawed and cultured in Matrigel-coated flasks prepared with a working solution of 1X Ham's F-12 nutrient mix, without supplementation (Invitrogen, cat. 11765054), 100 U/mL penicillin-streptomycin (Invitrogen, cat. 15140122), and 2.5% Matrigel (Corning Inc., cat. 354248) for the first three passages. The 857933-349-R-J2-PDC line was cultured in 6C/Colon 1B media, which includes advanced DMEM/F-12 (Thermo Fisher Scientific, cat. 12634028), 10 mM HEPES (Thermo Fisher Scientific, cat. 15630080), 1X GlutaMAX supplement (Thermo Fisher Scientific, cat. 35050061), 0.1 mg/mL primocin (InvivoGen, cat. ant-pm-2), 10% defined fetal bovine serum, heat inactivated (HyClone Laboratories Inc., cat. SH30070.03HI), 50% L-WRN conditioned media (ATCC, cat. CRL-3276), 1.25 mM N-Acetyl-L-cysteine (Sigma-Aldrich, cat. A9165), 10 mM nicotinamide (Sigma-Aldrich, cat. N0636), 1X B-27 supplement (Thermo Fisher Scientific, cat. 17504044), 1X N-2 supplement (Thermo Fisher Scientific, cat. 17502048), 10 microM Y-27632 dihydrochloride (Tocris Bioscience, cat. 1254), and 50 ng/mL human EGF recombinant protein (Thermo Fisher Scientific, cat. PHG0311). The 485176-168-R4-J1-PDC line was cultured in Panc media, which includes all 6C/Colon 1B media components plus 100 ng/mL human FGF-10 (Thermo Fisher Scientific, cat. 100-26), 500 nM SB-431542 (Selleckchem, cat. S1067), and gastrin (Tocris, cat. 3006).
[…]

[1] = curve of first compound, second compound 0.0316 µM
[2] = curve of first compound, second compound 0.1 µM
[3] = curve of first compound, second compound 0.316 µM
[4] = curve of first compound, second compound 1 µM
[5] = curve of first compound, second compound 3.16 µM
[6] = curve of first compound, second compound 10 µM
[7] = second compound 0.0316 µM, first compound 0.000999 µM
[8] = second compound 0.0316 µM, first compound 0.00316 µM
[9] = second compound 0.0316 µM, first compound 0.00999 µM
[10] = second compound 0.0316 µM, first compound 0.0316 µM
[11] = second compound 0.0316 µM, first compound 0.0999 µM
[12] = second compound 0.0316 µM, first compound 0.316 µM
[13] = second compound 0.1 µM, first compound 0.000999 µM
[14] = second compound 0.1 µM, first compound 0.00316 µM
[15] = second compound 0.1 µM, first compound 0.00999 µM
[16] = second compound 0.1 µM, first compound 0.0316 µM
[17] = second compound 0.1 µM, first compound 0.0999 µM
[18] = second compound 0.1 µM, first compound 0.316 µM
[19] = second compound 0.316 µM, first compound 0.000999 µM
[20] = second compound 0.316 µM, first compound 0.00316 µM
[21] = second compound 0.316 µM, first compound 0.00999 µM
[22] = second compound 0.316 µM, first compound 0.0316 µM
[23] = second compound 0.316 µM, first compound 0.0999 µM
[24] = second compound 0.316 µM, first compound 0.316 µM
[25] = second compound 1 µM, first compound 0.000999 µM
[26] = second compound 1 µM, first compound 0.00316 µM
[27] = second compound 1 µM, first compound 0.00999 µM
[28] = second compound 1 µM, first compound 0.0316 µM
[29] = second compound 1 µM, first compound 0.0999 µM
[30] = second compound 1 µM, first compound 0.316 µM
[31] = second compound 3.16 µM, first compound 0.000999 µM
[32] = second compound 3.16 µM, first compound 0.00316 µM
[33] = second compound 3.16 µM, first compound 0.00999 µM
[34] = second compound 3.16 µM, first compound 0.0316 µM
[35] = second compound 3.16 µM, first compound 0.0999 µM
[36] = second compound 3.16 µM, first compound 0.316 µM
[37] = second compound 10 µM, first compound 0.000999 µM
[38] = second compound 10 µM, first compound 0.00316 µM
[39] = second compound 10 µM, first compound 0.00999 µM
[40] = second compound 10 µM, first compound 0.0316 µM
[41] = second compound 10 µM, first compound 0.0999 µM
[42] = second compound 10 µM, first compound 0.316 µM
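Also: spheroids exposed to compounds for seven days.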

SMILES: Cn1ncnc1[C@H]1c2n[nH]c(=O)c3cc(F)cc(c23)N[C@@H]1c1ccc(F)cc1 + Cc1cnc(CNC(=O)c2c(=O)c3ccc(N4CCCN(C)CC4)nc3n3c2sc2ccccc23)cn1
- IC50 [1]: > 316 nM
- IC50 [2]: 76.8 nM
- IC50 [3]: 51.8 nM
- IC50 [4]: > 316 nM
- IC50 [5]: > 316 nM
- IC50 [6]: < 0.999 nM
- viability, T/C [7]: 108%
- viability, T/C [8]: 90.2%
- viability, T/C [9]: 91.4%
- viability, T/C [10]: 80.8%
- viability, T/C [11]: 70%
- viability, T/C [12]: 59%
- viability, T/C [13]: 83.1%
- viability, T/C [14]: 88.3%
- viability, T/C [15]: 71.8%
- viability, T/C [16]: 60%
- viability, T/C [17]: 48.8%
- viability, T/C [18]: 36.6%
- viability, T/C [19]: 75.8%
- viability, T/C [20]: 70.3%
- viability, T/C [21]: 65.3%
- viability, T/C [22]: 51.4%
- viability, T/C [23]: 47.2%
- viability, T/C [24]: 41.6%
- viability, T/C [25]: 64.1%
- viability, T/C [26]: 64.6%
- viability, T/C [27]: 62%
- viability, T/C [28]: 53.3%
- viability, T/C [29]: 56.3%
- viability, T/C [30]: 48.6%
- viability, T/C [31]: 62.1%
- viability, T/C [32]: 53.4%
- viability, T/C [33]: 60.2%
- viability, T/C [34]: 58.5%
- viability, T/C [35]: 57.1%
- viability, T/C [36]: 53.6%
- viability, T/C [37]: 0.31%
- viability, T/C [38]: 0.55%
- viability, T/C [39]: 31%
- viability, T/C [40]: 36.7%
- viability, T/C [41]: 0.53%
- viability, T/C [42]: 0.27%

SMILES: CC(C)n1c(=O)n(C)c2cnc3cc(F)c(-c4ccc(OCCCN5CCCCC5)nc4)cc3c21
- viability, T/C (compound 0.0316 µM): 104% and 111% and 96.6%
- viability, T/C (compound 0.1 µM): 103% and 98.6% and 97.8%
- viability, T/C (compound 0.316 µM): 97.7% and 102% and 92.9%
- viability, T/C (compound 1 µM): 101% and 92.8% and 92.4%
- viability, T/C (compound 3.16 µM): 91.9% and 89.9% and 91.4%
- viability, T/C (compound 10 µM): 64% and 74.3% and 68.2%
- IC50 (curve of compound): > 10000 nM

SMILES: CC(C)(O)C1CCC(Nc2ccc3ncc(-c4cccc(C(F)(F)F)c4)n3n2)CC1 (stereo not given)
- viability, T/C (compound 0.0316 µM): 105% and 109% and 106%
- viability, T/C (compound 0.1 µM): 99.6% and 101% and 93.8%
- viability, T/C (compound 0.316 µM): 98.4% and 95.2% and 111%
- viability, T/C (compound 1 µM): 77.4% and 76.5% and 90.4%
- viability, T/C (compound 3.16 µM): 30.5% and 26.7% and 22.5%
- viability, T/C (compound 10 µM): 35% and 28.9% and 29.6%
- IC50 (curve of compound): 2030 nM and 1880 nM and 2060 nM

SMILES: Cc1[nH]c2ccccc2c1CCNCc1ccc(/C=C/C(=O)NO)cc1 + Cc1cnc(CNC(=O)c2c(=O)c3ccc(N4CCCN(C)CC4)nc3n3c2sc2ccccc23)cn1
- IC50 [1]: 59.6 nM
- IC50 [2]: 56.9 nM
- IC50 [3]: 50.5 nM
- IC50 [4]: 41.6 nM
- IC50 [5]: 34.6 nM
- IC50 [6]: < 0.999 nM
- viability, T/C [7]: 96%
- viability, T/C [8]: 97.9%
- viability, T/C [9]: 106%
- viability, T/C [10]: 76.2%
- viability, T/C [11]: 27.9%
- viability, T/C [12]: 3.29%
- viability, T/C [13]: 84.4%
- viability, T/C [14]: 74.9%
- viability, T/C [15]: 79.2%
- viability, T/C [16]: 69.8%
- viability, T/C [17]: 31.1%
- viability, T/C [18]: 4.46%
- viability, T/C [19]: 69.7%
- viability, T/C [20]: 71.8%
- viability, T/C [21]: 74.2%
- viability, T/C [22]: 67.1%
- viability, T/C [23]: 24.9%
- viability, T/C [24]: 2.72%
- viability, T/C [25]: 61.3%
- viability, T/C [26]: 63.2%
- viability, T/C [27]: 61.5%
- viability, T/C [28]: 57.1%
- viability, T/C [29]: 27.5%
- viability, T/C [30]: 0.21%
- viability, T/C [31]: 56.4%
- viability, T/C [32]: 64.3%
- viability, T/C [33]: 59.1%
- viability, T/C [34]: 52.4%
- viability, T/C [35]: 21%
- viability, T/C [36]: 0.16%
- viability, T/C [37]: 0.26%
- viability, T/C [38]: 19.2%
- viability, T/C [39]: 43.2%
- viability, T/C [40]: 31.6%
- viability, T/C [41]: 0.77%
- viability, T/C [42]: 0.47%

SMILES: CC(=O)O[C@H]1C(=O)[C@@]2(C)[C@H]([C@H](OC(=O)c3ccccc3)[C@]3(O)C[C@H](OC(=O)[C@H](O)[C@@H](NC(=O)c4ccccc4)c4ccccc4)C(C)=C1C3(C)C)[C@]1(OC(C)=O)CO[C@@H]1C[C@@H]2O
- viability, T/C (compound 0.0316 µM): 16.1% and 19.8% and 21.1%
- viability, T/C (compound 0.1 µM): 8.55% and 9.04% and 12.4%
- viability, T/C (compound 0.316 µM): 7.38% and 7.58% and 9.89%
- viability, T/C (compound 1 µM): 7.17% and 7.18% and 9.08%
- viability, T/C (compound 3.16 µM): 6.82% and 7.18% and 9.43%
- viability, T/C (compound 10 µM): 9.29% and 10.2% and 11.2%
- IC50 (curve of compound): < 31.6 nM

SMILES: CC1COCCN1c1cc(C2(O)CC3CCC(C2)O3)c2cnn(-c3ccn[nH]3)c2n1 (stereo not given)
- viability, T/C (compound 0.0316 µM): 84.7% and 87.2% and 97.5%
- viability, T/C (compound 0.1 µM): 58.4% and 59.4% and 64.2%
- viability, T/C (compound 0.316 µM): 26.5% and 26.1% and 27.2%
- viability, T/C (compound 1 µM): 18% and 21.5% and 23.2%
- viability, T/C (compound 3.16 µM): 17.8% and 23.5% and 22.9%
- viability, T/C (compound 10 µM): 12% and 10.9% and 14.2%
- IC50 (curve of compound): 135 nM and 139 nM and 157 nM

SMILES: Cc1[nH]c2ccc(F)cc2c1-c1nc2c3cccnc3c3ncccc3c2[nH]1
- viability, T/C (compound 0.0316 µM): 106% [middle of 12 runs]
- viability, T/C (compound 0.1 µM): 110% [middle of 12 runs]
- viability, T/C (compound 0.316 µM): 106% [middle of 12 runs]
- viability, T/C (compound 1 µM): 105% [middle of 12 runs]
- viability, T/C (compound 3.16 µM): 100% [middle of 12 runs]
- viability, T/C (compound 10 µM): 88.5% [middle of 12 runs]
- IC50 (compound alone, run of 04/16/2024): > 10000 nM
- IC50 (compound alone, run of 04/22/2024): > 10000 nM
